According to patent publication US20200010910A1, “Cytotoxic Chemotherapy-Based Predictive Assays for Acute Myeloid Leukemia” (The Regents of The University of California, priority 2017, published 2020):

Experiments:
5637 = experiment: MTT assay IC50, bladder cancer cell line; assay type: cell-based, human; settings: 72 hours
Protocol: Thus, we measured the IC50 of the six NSCLC cell lines from Example 2 to both cisplatin and carboplatin to determine if the sensitivity of these six NSCLC cell lines to the two drugs are correlated.
Drug-DNA adduct formation and repair was measured by accelerator mass spectrometry.
These two cell lines were also cultured with a range of concentrations of cisplatin, carboplatin, gemcitabine, doxorubicin, methotrexate and vinblastine for 72 hours to determine IC50 for these other drugs (FIG. 16C). These drugs were chosen because of their frequent use in the treatment of bladder cancer.

A549 tumor xenograph = experiment: tumor response to therapeutic carboplatin; assay type: in vivo, nude mice; settings: resistant A549 xenograph; single IV 37.3 mg/kg; 14 days
Excerpt: (§1) Xenograft mouse tumors consisting of one carboplatin resistant and one sensitive tumor type were established for in vivo evaluation of carboplatin-DNA monoadduct formation and repair in tumor tissue and for in vivo evaluation of tumor response to therapeutic dosing with carboplatin. Tumor xenografts were established in 1-2 month old nude mice by injecting approximately one million cells into the left and right flanks, and allowed to develop tumors of less than 1 cm^3 over approximately 4 weeks prior to DNA adduct studies. Mice bearing resistant and sensitive tumors were exposed to either a microdose or therapeutic dose of carboplatin by tail vein injection. DNA isolated from tumor tissue was evaluated for carboplatin-DNA monoadduct frequency levels as a function of time. For tumor response, mice bearing resistant and sensitive tumors were therapeutically treated with a single IV injection of 37.3 mg/kg of carboplatin and then examined for tumor growth as assessed by measuring palpable tumors with a caliper and calculating tumor volume.
(§2) Mice xenografted with sensitive (H232A) and resistant (A549) lung cancer cell lines were infused with a therapeutic dose of carboplatin to assess tumor response. The tumors were measured daily over 14 days post infusion (FIG. 10C). Tumor size was normalized as the ratio of tumor diameter to the tumor diameter measured on day 0 (no change=1.0). […]

H23 2A tumor xenograph = experiment: tumor response to therapeutic carboplatin; assay type: in vivo, nude mice; settings: sensitive H23 2A xenograph; single IV 37.3 mg/kg; 14 days
Excerpt: as §1, §2

PDX Model BL0269 = experiment: drug-DNA adducts in PDX tumor by AMS; assay type: in vivo, NSG mice
Excerpt: (§3) Female NSG mice (5-8 weeks of age, body weight: 20 to 25 g) were obtained from Jackson Laboratories (CA, USA). All animals were kept under pathogen-free conditions and were allowed to acclimatize for at least 4 days prior to any experiments. PDX models bearing the indicated patient derived xenografts were created by subcutaneous injection at the flank of 1 mm^3 tumor tissue. To establish multiple PDXs to allow efficacy studies with multiple drugs, PDXs from passage 2-4 were minced into 1 mm^3 sections and injected subcutaneously into multiple mice. At least 3 mice were used for each treatment group. Tumors were allowed to grow to at about 100 mm^3 before being assessed for drug sensitivity or the induction of DNA adducts by the administration of a microdose or a therapeutic dose of labeled drug. To assess tumor response to chemotherapy, cisplatin was administered at 2 mg/kg IV every 7 days for a total of 3 cycles, or gemcitabine was administered at 150 mg/kg IP every 7 days for a total of 4 cycles. G/C combination chemotherapy consisted of the simultaneous administration of both drugs using the schema described above. Tumor growth was assessed by measuring palpable tumors with a caliper and calculating tumor volume. Drug-DNA adduct frequencies were measured in tumor tissue collected 24 hours after intravenous injection of labeled drug and stored at −80° C. until DNA isolation. DNA was isolated using a modified Wizard procedure (Promega), quantitated by spectrophotometry, and then stored frozen at −20° C. until AMS analysis. Ten micrograms of DNA per sample was converted to graphite and measured by AMS for 14C quantification as previously described.
(§4) NSG mice bearing the indicated PDX tumors were injected with a microdose of ^14C-labeled carboplatin (FIG. 22A) or ^14C-labeled gemcitabine (FIG. 22B). The microdose of ^14C-labeled carboplatin was 0.375 mg/kg carboplatin, 50,000 dpm/g. The microdose of ^14C-labeled gemcitabine was 0.092 mg/kg gemcitabine, 1000 dpm/g. The doses of each drug administered to the mice were chosen to target 1 μM in plasma concentration of carboplatin and 0.3 μM in plasma concentration of gemcitabine. These plasma concentrations represent 1% of the approximate peak plasma concentration during human chemotherapy. Animals were sacrificed after 24 h and drug-DNA adduct frequency was determined from collected tumor tissue by AMS measurements of ^14C in tumor DNA. Carboplatin DNA-adduct levels correlate with PDX model sensitivity to cisplatin at 24 h after microdosing (FIG. 22A). Gemcitabine DNA-adduct levels correlate with PDX model sensitivity to gemcitabine at 24 h after microdosing (FIG. 22B). […] There is no significant difference in carboplatin-DNA monoadduct levels between the three resistant PDX models. […] We conclude that microdose induced carboplatin-DNA monoadducts predicts sensitivity to cisplatin chemotherapy, and microdose induced gemcitabine incorporation predicts sensitivity to gemcitabine chemotherapy.
(§5) In this example we test whether gemcitabine/carboplatin (G/Carbo) combination therapy has an effect on the formation of drug-DNA adducts in this synergistic tumor model. In FIG. 23A, NGS mice bearing BL0645 xenographs were administered via tail vein injection a therapeutic dose of [^14C]carboplatin alone or a therapeutic dose of [^14C]carboplatin in combination with a therapeutic dose of gemcitabine. Carboplatin-DNA monoadducts were measured in tumor tissue 24 h after dosing. A therapeutic dose of the combination [^14C]carboplatin plus unlabeled gemcitabine leads to a significant increase in carboplatin-DNA monoadduct level (94.84±16.02 versus 209.6±64.66 adducts per 10^8 nucleotides, p=0.032) compared to treatment with carboplatin alone. In FIG. 23B, the same experiment was conducted in which the mice received a therapeutic dose of [^14C]gemcitabine alone or a therapeutic dose of [^14C]gemcitabine in combination with a therapeutic dose of unlabeled carboplatin. […]

PDX Model BL0645 = experiment: drug-DNA adducts in PDX tumor by AMS; assay type: in vivo, NSG mice; settings: 24 h
Excerpt: as §3, §4, §5

PDX Model BL0293 = experiment: drug-DNA adducts in PDX tumor by AMS; assay type: in vivo, NSG mice; settings: microdose 0.375 mg/kg carboplatin, 24 h
Excerpt: as §3
(§6) NSG mice bearing the indicated PDX tumors were injected with a microdose of ^14C-labeled carboplatin (FIG. 22A) or ^14C-labeled gemcitabine (FIG. 22B). The microdose of ^14C-labeled carboplatin was 0.375 mg/kg carboplatin, 50,000 dpm/g. The microdose of ^14C-labeled gemcitabine was 0.092 mg/kg gemcitabine, 1000 dpm/g. The doses of each drug administered to the mice were chosen to target 1 μM in plasma concentration of carboplatin and 0.3 μM in plasma concentration of gemcitabine. These plasma concentrations represent 1% of the approximate peak plasma concentration during human chemotherapy. Animals were sacrificed after 24 h and drug-DNA adduct frequency was determined from collected tumor tissue by AMS measurements of ^14C in tumor DNA. Carboplatin DNA-adduct levels correlate with PDX model sensitivity to cisplatin at 24 h after microdosing (FIG. 22A). Gemcitabine DNA-adduct levels correlate with PDX model sensitivity to gemcitabine at 24 h after microdosing (FIG. 22B). […] There is no significant difference in carboplatin-DNA monoadduct levels between the three resistant PDX models. […]

PDX Model BL0440 = experiment: drug-DNA adducts in PDX tumor by AMS; assay type: in vivo, NSG mice; settings: microdose 0.375 mg/kg carboplatin, 24 h
Excerpt: as §3, §6

[1] = safety of radiolabeled microdose in patients; settings: IV microdose, 1% of the therapeutic dose
Protocol: Microdoses of the [^14C]Carboplatin were administered to human cancer patients as a diagnostic reagent, followed by full dose platinum-based chemotherapy and evaluation of response. Within four weeks of the [^14C]carboplatin microdose, these patients received standard of care chemotherapy for their disease, which included either carboplatin or cisplatin. The patient population consisted of non-small cell lung cancer patients (NSCLC), stage IV with measurable lesions, and bladder transitional cell carcinoma (TCC) patients, stage II disease and above for neoadjuvant treatment, or stage III and IV metastatic disease with measurable lesions for palliative chemotherapy. Patients were identified for this study as having measurable lesions using the Response Evaluation Criteria in Solid Tumor (RECIST), an Eastern Cooperative Oncology Group performance status of <2, and adequate bone marrow and vital organ function. PBMC and tumor tissue were collected from the patients for analysis of carboplatin-DNA monoadduct frequencies. Toxicity of the [^14C]carboplatin diagnostic reagent administered as a microdose was assessed using Common Terminology Criteria for Adverse Events (CTCAE). Toxicities of grade 3 and above were also collected for patient specific toxic response to full dose chemotherapy for correlation analysis to carboplatin-DNA monoadduct frequency. Patient response to chemotherapy was evaluated using the RECIST for correlation to carboplatin-DNA monoadduct frequency.
The dose of carboplatin in the diagnostic microdose was chosen to be sub-toxic and non-therapeutic, to minimize patient chemical and radiation exposure, and to result in AMS measurable carboplatin-DNA monoadducts. Nineteen patients have been administered at least one microdose of [^14C]carboplatin via IV infusion as a diagnostic reagent. Patient toxicity related to the microdose was monitored from the time of IV microdose until the patients received their first chemotherapy. […] The total radioactive dose given to a 75 kg patient after an IV microdose of [^14C]carboplatin is calculated to be 338 μCi. […]

SMILES: N.N.O=C([O-])C1(C(=O)[O-])CCC1.[Pt+2] [carboplatin]
- IC50 5637: 24.3 µM
- IC50 (5637; listed as Carboplatin): 24.35 ± 0.12 µM
- tumor response (growth after chemotherapy) (A549 tumor xenograph): continued to grow
- tumor response (growth after chemotherapy) (H23 2A tumor xenograph): did not display any growth
- Carboplatin-DNA monoadduct levels (PDX Model BL0269; control experiment FIG. 23E, microdose single agent or G/Carbo combination): 1.85±0.798 adducts per 10^8 nucleotides
- mean carboplatin-DNA monoadduct level (PDX Model BL0269; microdose 0.375 mg/kg carboplatin, 24 h (FIG. 22A)): 1.77±0.706 adducts per 10^8 nucleotides
- mean carboplatin-DNA monoadduct level (PDX Model BL0645; microdose 0.375 mg/kg carboplatin alone or with gemcitabine 0.092 mg/kg): 1.27±0.307 adducts per 10^8 nucleotides
- carboplatin-DNA monoadduct level (PDX Model BL0645; therapeutic 37.5 mg/kg carboplatin alone or with gemcitabine 9.2 mg/kg): 94.84±16.02 adducts per 10^8 nucleotides
- mean carboplatin-DNA monoadduct level (PDX Model BL0293): 1.46±0.520 adducts per 10^8 nucleotides
- mean carboplatin-DNA monoadduct level (PDX Model BL0440): 2.73±0.661 adducts per 10^8 nucleotides
- clinical side effects [1]: None of the clinical side effects associated with standard therapeutic doses of carboplatin were observed
- tolerability of radiolabeled microdose [1]: well tolerated
